In US9113629B2, “4-amino-6-(4-substituted-phenyl)-picolinates and 6-amino-2-(4-substituted-phenyl)-pyrimidine-4-carboxylates and their use as herbicides” (DOW AGROSCIENCES LLC, priority 2013, dated 2015):
Like-named read-outs stand apart in the source and are kept apart here.

How the values were obtained:
[1] = system: Key Broadleaf Weed and Crop Species; experiment: Post-emergent Test II herbicidal activity (Table 5); type: in vivo; conditions: post-emergence, 336 h, 14 days after application
Summary of the method: (§1)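 Spray rates: a highest rate plus ½×, ¼×, ⅛×, 1/16×, all delivered at 187 L/ha to plants at the first–second true leaf stage. Readout is a visual percent injury score at 14 d, where 100 means complete kill.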

[2] = system: Key Grass and Sedge Weeds as well as Grass Crops; experiment: Post-emergent Test II herbicidal activity (Table 6); type: in vivo; conditions: post-emergence, 336 h
Summary of the method: as §1

Nc1c(F)c(-c2ccc(Br)c(F)c2F)nc(C(=O)O)c1Cl [Compound 147]
pest or weed control at 70 g/ha ([1]; ABUTH: velvetleaf (Abutilon theophrasti), application rate 70 g ai/ha, read-out: Visual Growth Reduction (%) 14 Days After Application, ABUTH): 95 to 100% | pest or weed control at 140 g/ha ([1]; ABUTH: velvetleaf (Abutilon theophrasti), application rate 140 g ai/ha, read-out: Visual Growth Reduction (%) 14 Days After Application, ABUTH): 0 to 29% | pest or weed control at 70 g/ha ([1]; AMARE: redroot pigweed (Amaranthus retroflexus), application rate 70 g ai/ha, read-out: Visual Growth Reduction (%) 14 Days After Application, AMARE): 95 to 100% | pest or weed control at 140 g/ha ([1]; AMARE: redroot pigweed (Amaranthus retroflexus), application rate 140 g ai/ha, read-out: Visual Growth Reduction (%) 14 Days After Application, AMARE): 95 to 100% | pest or weed control at 70 g/ha ([1]; BRSNN: oilseed-rape, canola (Brassica napus), application rate 70 g ai/ha, read-out: Visual Growth Reduction (%) 14 Days After Application, BRSNN): 95 to 100% | pest or weed control at 140 g/ha ([1]; BRSNN: oilseed-rape, canola (Brassica napus), application rate 140 g ai/ha, read-out: Visual Growth Reduction (%) 14 Days After Application, BRSNN): 95 to 100% | pest or weed control at 70 g/ha ([1]; CHEAL: lambsquarters (Chenopodium album), application rate 70 g ai/ha, read-out: Visual Growth Reduction (%) 14 Days After Application, CHEAL): 95 to 100% | pest or weed control at 140 g/ha ([1]; CHEAL: lambsquarters (Chenopodium album), application rate 140 g ai/ha, read-out: Visual Growth Reduction (%) 14 Days After Application, CHEAL): 95 to 100% | pest or weed control at 70 g/ha ([1]; EPHHL: wild poinsettia (Euphorbia heterophylla), application rate 70 g ai/ha, read-out: Visual Growth Reduction (%) 14 Days After Application, EPHHL): 95 to 100% | pest or weed control at 140 g/ha ([1]; EPHHL: wild poinsettia (Euphorbia heterophylla), application rate 140 g ai/ha, read-out: Visual Growth Reduction (%) 14 Days After Application, EPHHL): 95 to 100% | pest or weed control at 70 g/ha ([1]; HELAN: sunflower (Helianthus annuus), application rate 70 g ai/ha, read-out: Visual Growth Reduction (%) 14 Days After Application, HELAN): 95 to 100% | pest or weed control at 140 g/ha ([1]; HELAN: sunflower (Helianthus annuus), application rate 140 g ai/ha, read-out: Visual Growth Reduction (%) 14 Days After Application, HELAN): 95 to 100% | pest or weed control at 70 g/ha ([1]; VIOTR: wild pansy (Viola tricolor), application rate 70 g ai/ha, read-out: Visual Growth Reduction (%) 14 Days After Application, VIOTR): 95 to 100% | pest or weed control at 140 g/ha ([1]; VIOTR: wild pansy (Viola tricolor), application rate 140 g ai/ha, read-out: Visual Growth Reduction (%) 14 Days After Application, VIOTR): 95 to 100% | pest or weed control at 70 g/ha ([2]; CYPES: yellow nutsedge (Cyperus esculentus), 70 g ai/ha, read-out: Visual Growth Reduction (%) 14 Days After Application, CYPES): 95 to 100% | pest or weed control at 140 g/ha ([2]; CYPES: yellow nutsedge (Cyperus esculentus), 140 g ai/ha, read-out: Visual Growth Reduction (%) 14 Days After Application, CYPES): 95 to 100% | pest or weed control at 70 g/ha ([2]; DIGSA: crabgrass (Digitaria sanguinalis), 70 g ai/ha, read-out: Visual Growth Reduction (%) 14 Days After Application, DIGSA): 85 to 94% | pest or weed control at 140 g/ha ([2]; DIGSA: crabgrass (Digitaria sanguinalis), 140 g ai/ha, read-out: Visual Growth Reduction (%) 14 Days After Application, DIGSA): 95 to 100% | pest or weed control at 70 g/ha ([2]; ECHCG: barnyardgrass (Echinochloa crus-galli), 70 g ai/ha, read-out: Visual Growth Reduction (%) 14 Days After Application, ECHCG): 95 to 100% | pest or weed control at 140 g/ha ([2]; ECHCG: barnyardgrass (Echinochloa crus-galli), 140 g ai/ha, read-out: Visual Growth Reduction (%) 14 Days After Application, ECHCG): 95 to 100% | pest or weed control at 70 g/ha ([2]; ORYSA: rice (Oryza sativa), crop, 70 g ai/ha, read-out: Visual Growth Reduction (%) 14 Days After Application, ORYSA): 60 to 74% | pest or weed control at 140 g/ha ([2]; ORYSA: rice (Oryza sativa), crop, 140 g ai/ha, read-out: Visual Growth Reduction (%) 14 Days After Application, ORYSA): 75 to 84% | pest or weed control at 70 g/ha ([2]; SETFA: giant foxtail (Setaria faberi), 70 g ai/ha, read-out: Visual Growth Reduction (%) 14 Days After Application, SETFA): 0 to 29% | pest or weed control at 140 g/ha ([2]; SETFA: giant foxtail (Setaria faberi), 140 g ai/ha, read-out: Visual Growth Reduction (%) 14 Days After Application, SETFA): 95 to 100% | pest or weed control at 70 g/ha ([2]; SORVU: grain sorghum (Sorghum vulgare), 70 g ai/ha, read-out: Visual Growth Reduction (%) 14 Days After Application, SORVU): 95 to 100% | pest or weed control at 140 g/ha ([2]; SORVU: grain sorghum (Sorghum vulgare), 140 g ai/ha, read-out: Visual Growth Reduction (%) 14 Days After Application, SORVU): 95 to 100% | pest or weed control at 70 g/ha ([2]; TRZSS (wheat, Triticum aestivum), crop, 70 g ai/ha, read-out: Visual Growth Reduction (%) 14 Days After Application, TRZSS): 60 to 74% | pest or weed control at 140 g/ha ([2]; TRZSS (wheat, Triticum aestivum), crop, 140 g ai/ha, read-out: Visual Growth Reduction (%) 14 Days After Application, TRZSS): 60 to 74% | pest or weed control at 70 g/ha ([2]; ZEAMX: maize, corn (Zea mays), crop, 70 g ai/ha, read-out: Visual Growth Reduction (%) 14 Days After Application, ZEAMX): 95 to 100% | pest or weed control at 140 g/ha ([2]; ZEAMX: maize, corn (Zea mays), crop, 140 g ai/ha, read-out: Visual Growth Reduction (%) 14 Days After Application, ZEAMX): 95 to 100%

COC(=O)c1nc(-c2ccc(Br)cc2F)cc(N)c1Cl [Compound 93]
pest or weed control at 70 g/ha ([1]; ABUTH: velvetleaf (Abutilon theophrasti), 70 g ai/ha, post-emergent, read-out: Visual Growth Reduction (%) 14 Days After Application ABUTH): 95 to 100% | pest or weed control at 140 g/ha ([1]; ABUTH: velvetleaf (Abutilon theophrasti), 140 g ai/ha, post-emergent, read-out: Visual Growth Reduction (%) 14 Days After Application ABUTH): 95 to 100% | pest or weed control at 70 g/ha ([1]; AMARE: redroot pigweed (Amaranthus retroflexus), 70 g ai/ha, post-emergent, read-out: Visual Growth Reduction (%) 14 Days After Application AMARE): 95 to 100% | pest or weed control at 140 g/ha ([1]; AMARE: redroot pigweed (Amaranthus retroflexus), 140 g ai/ha, post-emergent, read-out: Visual Growth Reduction (%) 14 Days After Application AMARE): 95 to 100% | pest or weed control at 70 g/ha ([1]; BRSNN: oilseed-rape, canola (Brassica napus), 70 g ai/ha, post-emergent, read-out: Visual Growth Reduction (%) 14 Days After Application BRSNN): 0 to 29% | pest or weed control at 140 g/ha ([1]; BRSNN: oilseed-rape, canola (Brassica napus), 140 g ai/ha, post-emergent, read-out: Visual Growth Reduction (%) 14 Days After Application BRSNN): 60 to 74% | pest or weed control at 70 g/ha ([1]; CHEAL: lambsquarters (Chenopodium album), 70 g ai/ha, post-emergent, read-out: Visual Growth Reduction (%) 14 Days After Application CHEAL): 85 to 94% | pest or weed control at 140 g/ha ([1]; CHEAL: lambsquarters (Chenopodium album), 140 g ai/ha, post-emergent, read-out: Visual Growth Reduction (%) 14 Days After Application CHEAL): 95 to 100% | pest or weed control at 70 g/ha ([1]; EPHHL: wild poinsettia (Euphorbia heterophylla), 70 g ai/ha, post-emergent, read-out: Visual Growth Reduction (%) 14 Days After Application EPHHL): 95 to 100% | pest or weed control at 140 g/ha ([1]; EPHHL: wild poinsettia (Euphorbia heterophylla), 140 g ai/ha, post-emergent, read-out: Visual Growth Reduction (%) 14 Days After Application EPHHL): 95 to 100% | pest or weed control at 70 g/ha ([1]; HELAN: sunflower (Helianthus annuus), 70 g ai/ha, post-emergent, read-out: Visual Growth Reduction (%) 14 Days After Application HELAN): 85 to 94% | pest or weed control at 140 g/ha ([1]; HELAN: sunflower (Helianthus annuus), 140 g ai/ha, post-emergent, read-out: Visual Growth Reduction (%) 14 Days After Application HELAN): 85 to 94% | pest or weed control at 70 g/ha ([1]; VIOTR: wild pansy (Viola tricolor), 70 g ai/ha, post-emergent, read-out: Visual Growth Reduction (%) 14 Days After Application VIOTR): 30 to 44% | pest or weed control at 70 g/ha ([2]; Triticum aestivum, TRZSS (wheat), application rate 70 g ai/ha, read-out: Visual Growth Reduction (%) 14 Days After Application, TRZSS): 45 to 59% | pest or weed control at 140 g/ha ([2]; Triticum aestivum, TRZSS (wheat), application rate 140 g ai/ha, read-out: Visual Growth Reduction (%) 14 Days After Application, TRZSS): 45 to 59% | pest or weed control at 70 g/ha ([2]; CYPES: yellow nutsedge (Cyperus esculentus), application rate 70 g ai/ha, read-out: Visual Growth Reduction (%) 14 Days After Application, CYPES): 95 to 100% | pest or weed control at 140 g/ha ([2]; CYPES: yellow nutsedge (Cyperus esculentus), application rate 140 g ai/ha, read-out: Visual Growth Reduction (%) 14 Days After Application, CYPES): 95 to 100% | pest or weed control at 70 g/ha ([2]; DIGSA: crabgrass (Digitaria sanguinalis), application rate 70 g ai/ha, read-out: Visual Growth Reduction (%) 14 Days After Application, DIGSA): 75 to 84% | pest or weed control at 140 g/ha ([2]; DIGSA: crabgrass (Digitaria sanguinalis), application rate 140 g ai/ha, read-out: Visual Growth Reduction (%) 14 Days After Application, DIGSA): 95 to 100% | pest or weed control at 70 g/ha ([2]; ECHCG: barnyardgrass (Echinochloa crus-galli), application rate 70 g ai/ha, read-out: Visual Growth Reduction (%) 14 Days After Application, ECHCG): 85 to 94% | pest or weed control at 140 g/ha ([2]; ECHCG: barnyardgrass (Echinochloa crus-galli), application rate 140 g ai/ha, read-out: Visual Growth Reduction (%) 14 Days After Application, ECHCG): 85 to 94% | pest or weed control at 70 g/ha ([2]; ORYSA: rice (Oryza sativa), application rate 70 g ai/ha, read-out: Visual Growth Reduction (%) 14 Days After Application, ORYSA): 0 to 29% | pest or weed control at 140 g/ha ([2]; ORYSA: rice (Oryza sativa), application rate 140 g ai/ha, read-out: Visual Growth Reduction (%) 14 Days After Application, ORYSA): 0 to 29% | pest or weed control at 70 g/ha ([2]; SETFA: giant foxtail (Setaria faberi), application rate 70 g ai/ha, read-out: Visual Growth Reduction (%) 14 Days After Application, SETFA): 75 to 84% | pest or weed control at 140 g/ha ([2]; SETFA: giant foxtail (Setaria faberi), application rate 140 g ai/ha, read-out: Visual Growth Reduction (%) 14 Days After Application, SETFA): 75 to 84% | pest or weed control at 70 g/ha ([2]; SORVU: grain sorghum (Sorghum vulgare), application rate 70 g ai/ha, read-out: Visual Growth Reduction (%) 14 Days After Application, SORVU): 85 to 94% | pest or weed control at 140 g/ha ([2]; SORVU: grain sorghum (Sorghum vulgare), application rate 140 g ai/ha, read-out: Visual Growth Reduction (%) 14 Days After Application, SORVU): 95 to 100% | pest or weed control at 70 g/ha ([2]; ZEAMX: maize, corn (Zea mays), application rate 70 g ai/ha, read-out: Visual Growth Reduction (%) 14 Days After Application, ZEAMX): 60 to 74% | pest or weed control at 140 g/ha ([2]; ZEAMX: maize, corn (Zea mays), application rate 140 g ai/ha, read-out: Visual Growth Reduction (%) 14 Days After Application, ZEAMX): 75 to 84%
